Results taken from patent US20260317304A1, “TEAD INHIBITORS AND METHODS OF USE” (Sporos BioDiscovery, Inc., priority 2022, published 2026).

What was measured:
TEAD1 = TEAD1 (Homo sapiens, UniProt P28347); assay: TEAD thermal shift assay (TSA); type: binding
Text: (§1) Thermal shift assay (TSA) is a biophysical method to evaluate stability of proteins with change in temperature. The assay measures thermal denaturation temperature in varying conditions such as different drug concentration. For this example, fluorogenic dye was used that bind to unfolded proteins. SYPRO Orange binds non-specifically to hydrophobic surfaces, and water strongly quenches its fluorescence. When the protein unfolds, the exposed hydrophobic surfaces bind the dye, resulting in an increase in fluorescence by excluding water. Detergent micelles also bind the dye and increase background noise dramatically. Binding of small molecules to proteins leads to a stabilization against to thermal denaturation with the degree of thermal stabilization proportional to the strength of binding.
(§2) The study described in this example investigated the change in melting temperature (ΔTm) of TEAD isoforms 1-4 when treated with TEAD inhibitors.
(§3) Tris-HCL was dissolved in 5 mL of Cell culture grade water and allowed to dissolve completely. The pH was adjusted to 8 using NaOH. Additional assay buffer components were added in the order listed above. The buffer was mixed slowly.
(§4) Assay buffer was prepared according to the procedures outlined above and dispensed into test wells. Spyro orange was added to a concentration of 5× in the assay buffer, followed by test compound stock solution which was added to a concentration of 10 μM or 30 μM in the assay buffer.
(§5) The melt cycle was performed in Bio-RAD PCR instrument from 20-95° C. with ramp rate of 1° C./min.

TEAD2 = TEAD2 (Homo sapiens, UniProt Q15562); assay: TEAD thermal shift assay (TSA); type: binding
Text: as §1, §2, §3, §4, §5

TEAD3 = TEAD3 (Homo sapiens, UniProt Q99594); assay: TEAD thermal shift assay (TSA); type: binding
Text: as §1, §2, §3, §4, §5

TEAD4 = TEAD4 (Homo sapiens, UniProt Q15561); assay: TEAD thermal shift assay (TSA); type: binding
Text: as §1, §2, §3, §4, §5

MSTO-211H xenograft = assay: Mouse xenograft MSTO-211H tumors compared to prior art TEAD inhibitor; type: in vivo, BALB/c nude mice; settings: 7 days of treatment, PO BID, 12.5 mg/kg Compound 5
Protocol: This study evaluated the in vivo anti-tumor efficacy of test compounds in BALB/c nude mice for treatment of MSTO-211H xenograft of lung cancer.
The MSTO-211H tumor cells were maintained in vitro in RPMI 1640 medium supplemented with 10% Fetal bovine serum and 1% Antibiotic-Antimycotic at 37° C. in an atmosphere of 5% CO2 in air. The tumor cells were routinely subcultured twice weekly by trypsin-EDTA. The cells growing in an exponential growth phase were harvested and counted for tumor inoculation.
Each mouse was inoculated subcutaneously at the right flank with MSTO-211H tumor cells (10×10^6+50% matrigel/0.2 mL) for tumor development. Test subjects received vehicle (e.g., 0.5% CMC-Na+1% Tween80) beginning on day 7 after cell inoculation. […]
The major endpoint was to determine if the tumor growth could be delayed. Tumor size was measured twice a week in two dimensions using a caliper, and the volume was expressed in mm^3 using the formula: V=0.5 a×b^2 where a and b are the long and short diameters of the tumor, respectively. […]
Summary statistics, including mean and the standard error of the mean (SEM), were calculated for the tumor volume of each group at each time point. […]
One-tailed T test was performed to compare tumor volumes between two groups. All data were analyzed using GraphPad Prism 6.0. p<0.05 was considered to be statistically significant.

[1] = Ratio of Protein to Compound 1:1
[2] = Ratio of Protein to Compound 1:3

Chain of TEAD2 (Q15562 whole entry): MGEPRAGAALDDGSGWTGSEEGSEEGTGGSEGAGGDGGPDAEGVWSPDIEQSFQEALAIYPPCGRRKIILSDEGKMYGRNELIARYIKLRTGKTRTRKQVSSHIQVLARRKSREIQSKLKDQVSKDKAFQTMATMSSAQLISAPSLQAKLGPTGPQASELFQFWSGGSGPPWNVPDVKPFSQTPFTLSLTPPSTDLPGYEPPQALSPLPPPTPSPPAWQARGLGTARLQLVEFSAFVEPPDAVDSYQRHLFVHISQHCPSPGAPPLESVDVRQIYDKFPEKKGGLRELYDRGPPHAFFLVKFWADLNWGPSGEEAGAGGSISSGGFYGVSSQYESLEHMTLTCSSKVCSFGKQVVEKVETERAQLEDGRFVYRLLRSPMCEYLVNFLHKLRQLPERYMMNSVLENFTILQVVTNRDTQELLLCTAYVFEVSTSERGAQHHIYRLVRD
Chain of TEAD1 (P28347 whole entry): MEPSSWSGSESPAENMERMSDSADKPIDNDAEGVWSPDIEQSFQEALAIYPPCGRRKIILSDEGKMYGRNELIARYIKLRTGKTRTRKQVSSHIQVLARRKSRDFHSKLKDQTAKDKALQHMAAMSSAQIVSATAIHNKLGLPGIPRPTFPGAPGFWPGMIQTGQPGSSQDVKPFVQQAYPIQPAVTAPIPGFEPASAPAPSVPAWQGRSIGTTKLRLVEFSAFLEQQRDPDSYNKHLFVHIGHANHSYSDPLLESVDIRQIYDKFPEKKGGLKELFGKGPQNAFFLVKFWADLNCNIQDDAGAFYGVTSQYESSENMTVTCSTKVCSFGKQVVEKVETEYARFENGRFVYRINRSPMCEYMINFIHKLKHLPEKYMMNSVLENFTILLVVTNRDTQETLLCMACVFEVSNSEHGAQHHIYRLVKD
Chain of TEAD3 (Q99594 whole entry): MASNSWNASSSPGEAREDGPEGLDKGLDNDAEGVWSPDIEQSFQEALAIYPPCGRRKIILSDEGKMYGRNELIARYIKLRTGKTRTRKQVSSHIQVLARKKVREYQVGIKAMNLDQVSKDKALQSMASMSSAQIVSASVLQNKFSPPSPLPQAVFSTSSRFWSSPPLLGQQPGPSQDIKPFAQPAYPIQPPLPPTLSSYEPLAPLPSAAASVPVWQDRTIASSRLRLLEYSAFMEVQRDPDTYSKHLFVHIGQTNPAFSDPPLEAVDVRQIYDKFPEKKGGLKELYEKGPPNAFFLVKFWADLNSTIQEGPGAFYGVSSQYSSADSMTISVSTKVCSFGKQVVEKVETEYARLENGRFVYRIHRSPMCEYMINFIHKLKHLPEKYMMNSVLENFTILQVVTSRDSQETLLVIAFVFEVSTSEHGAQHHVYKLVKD
Chain of TEAD4 (Q15561 whole entry): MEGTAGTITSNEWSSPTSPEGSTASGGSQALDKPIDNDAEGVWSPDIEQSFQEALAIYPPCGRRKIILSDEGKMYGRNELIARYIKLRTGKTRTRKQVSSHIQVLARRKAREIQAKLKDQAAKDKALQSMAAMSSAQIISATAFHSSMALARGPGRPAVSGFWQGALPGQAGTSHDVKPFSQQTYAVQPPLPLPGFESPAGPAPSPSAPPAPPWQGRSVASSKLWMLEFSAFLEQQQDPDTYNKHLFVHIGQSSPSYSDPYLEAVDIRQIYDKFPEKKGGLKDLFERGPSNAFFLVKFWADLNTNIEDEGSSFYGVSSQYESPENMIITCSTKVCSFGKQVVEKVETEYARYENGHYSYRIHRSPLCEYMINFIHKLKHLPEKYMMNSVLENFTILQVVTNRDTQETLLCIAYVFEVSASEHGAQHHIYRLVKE

## Cn1cnc(-c2cc([C@@]3(C)CCNC3=O)ccc2Nc2ccc(C(F)(F)F)cc2)c1 (single isomer, unassigned) [Compound 5, 3-methyl-3-(3-(1-methyl-1H-imidazol-4-yl)-4-((4-(trifluoromethyl)phenyl)amino)phenyl)pyrrolidin-2-one]
TEAD1; [1]
  TEAD1 ΔTm: 7 °C
TEAD1; [2]
  TEAD1 ΔTm: 10 °C
TEAD2; [1]
  TEAD2 ΔTm: 8.5 °C
TEAD2; [2]
  TEAD2 ΔTm: 11.5 °C
TEAD3; [1]
  TEAD3 ΔTm: 0 °C
TEAD3; [2]
  TEAD3 ΔTm: 0 °C
TEAD4; [1]
  TEAD4 ΔTm: 1.5 °C
TEAD4; [2]
  TEAD4 ΔTm: 7 °C
MSTO-211H xenograft
  change in tumor volume (in words): tumor reduction was observed
